The test system of experiment [1] is FLT3. Nature of the experiment: Kinobeads two-dose competition binding: FLT3. Set-up: species or system human. Conditions: for CATDS: target FLT3.
Experiment [2] concerns the target T1, AKT3 (Homo sapiens, UniProt Q9Y243).
T1 construct: endogenous in cells
Nature of the experiment: Kinobeads competition binding: AKT3. As to conditions: target AKT3.

Experiment [3] addresses T2, BTK (Homo sapiens, UniProt Q06187).
T2 construct: endogenous in cells
Kind of experiment: Kinobeads competition binding: BTK. As to conditions: target BTK. The source says: Supplement 41589_2023_1459_MOESM4_ESM.xlsx, sheet "CATDS matrix" | column: BTK

The target in experiment [4] is T3, CAMK2B (Homo sapiens, UniProt Q13554).
T3 construct: endogenous in cells
T3 sequence (Q13554 whole entry): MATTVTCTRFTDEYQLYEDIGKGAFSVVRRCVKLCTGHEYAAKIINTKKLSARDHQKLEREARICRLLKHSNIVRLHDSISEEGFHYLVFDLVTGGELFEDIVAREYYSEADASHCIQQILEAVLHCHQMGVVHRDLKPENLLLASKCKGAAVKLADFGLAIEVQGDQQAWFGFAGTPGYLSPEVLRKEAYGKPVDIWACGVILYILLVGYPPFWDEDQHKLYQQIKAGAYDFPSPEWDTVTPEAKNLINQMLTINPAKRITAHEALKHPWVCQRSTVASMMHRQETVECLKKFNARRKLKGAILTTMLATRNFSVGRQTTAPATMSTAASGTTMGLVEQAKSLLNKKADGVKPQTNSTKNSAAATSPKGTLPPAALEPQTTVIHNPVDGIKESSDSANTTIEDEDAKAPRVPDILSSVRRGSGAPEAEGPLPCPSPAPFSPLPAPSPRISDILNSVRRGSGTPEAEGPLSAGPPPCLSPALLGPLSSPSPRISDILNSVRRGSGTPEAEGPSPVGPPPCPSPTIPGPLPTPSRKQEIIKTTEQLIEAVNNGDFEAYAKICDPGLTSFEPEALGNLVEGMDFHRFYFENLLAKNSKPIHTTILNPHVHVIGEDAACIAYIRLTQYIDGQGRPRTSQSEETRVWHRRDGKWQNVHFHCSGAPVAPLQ
Nature of the experiment: Kinobeads competition binding: CAMK2B. Conditions: target CAMK2B. The source says:
Supplement 41589_2023_1459_MOESM4_ESM.xlsx, sheet "CATDS matrix" | column: CAMK2B

The subject of experiment [5] is CDK17. Kind of experiment: Kinobeads competition binding: CDK17. As to conditions: target CDK17. Set-up: species or system human.
For experiment [6], the target named is T4, CDK2 (Homo sapiens, UniProt P24941).
T4 construct: endogenous in cells
Kind of experiment: Kinobeads competition binding: CDK2. Conditions: target CDK2.

For experiment [7], the target named is T5, CLK1 (Homo sapiens, UniProt P49759).
T5 construct: endogenous in cells
T5 sequence (P49759 whole entry): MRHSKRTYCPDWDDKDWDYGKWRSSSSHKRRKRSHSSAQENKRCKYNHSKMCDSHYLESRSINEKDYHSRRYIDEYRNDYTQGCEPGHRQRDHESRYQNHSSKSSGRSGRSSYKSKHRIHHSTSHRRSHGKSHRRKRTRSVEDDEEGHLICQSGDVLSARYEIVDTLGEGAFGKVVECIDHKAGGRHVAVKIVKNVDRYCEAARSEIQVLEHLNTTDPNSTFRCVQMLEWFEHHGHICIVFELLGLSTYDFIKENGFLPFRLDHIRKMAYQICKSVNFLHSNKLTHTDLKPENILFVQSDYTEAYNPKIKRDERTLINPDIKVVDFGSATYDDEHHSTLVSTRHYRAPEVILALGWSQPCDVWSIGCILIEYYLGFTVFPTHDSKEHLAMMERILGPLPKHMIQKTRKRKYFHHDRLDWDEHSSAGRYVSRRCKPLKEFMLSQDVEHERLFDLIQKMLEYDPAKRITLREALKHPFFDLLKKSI
Nature of the experiment: Kinobeads competition binding: CLK1. Conditions: target CLK1.

Experiment [8] deals with CLK3. Nature of the experiment: Kinobeads competition binding: CLK3. Further details: species or system human. As to conditions: target CLK3.
Experiment [9] concerns DCK. Nature of the experiment: Kinobeads competition binding: DCK.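 Note: share of total target engagement due to this protein at one drug concentration.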 Further details: species or system human. As to conditions: target DCK.
In experiment [10] the test system is DDR2. Nature of the experiment: Kinobeads competition binding: DDR2.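 Note: target engagement share of this target among all targets at its Kdapp concentration.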 Set-up: species or system human. As to conditions: target DDR2.
Experiment [11] addresses T6, GSK3A (Homo sapiens, UniProt P49840).
T6 construct: endogenous in cells
Nature of the experiment: Kinobeads competition binding: GSK3A. As to conditions: target GSK3A.

The subject of experiment [12] is ICK. Kind of experiment: Kinobeads competition binding: ICK. As to conditions: target ICK. Further details: species or system human.
The subject of experiment [13] is IRAK3. Nature of the experiment: Kinobeads competition binding: IRAK3. Further details: species or system human. Conditions: target IRAK3.
Experiment [14] concerns JAK2. Kind of experiment: Kinobeads competition binding: JAK2.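 Note: target engagement share of this target among all targets at its Kdapp concentration.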 Further details: species or system human. As to conditions: target JAK2.
Experiment [15] relates to MAP2K6. Kind of experiment: Kinobeads competition binding: MAP2K6. Set-up: species or system human. As to conditions: target MAP2K6.
Experiment [16] concerns MAP3K12. Kind of experiment: Kinobeads competition binding: MAP3K12. Further details: species or system human. Conditions: target MAP3K12.
Experiment [17] concerns MAPK1. Kind of experiment: Kinobeads competition binding: MAPK1. Set-up: species or system human. As to conditions: target MAPK1.
For experiment [18], the system named is MARK2. Kind of experiment: Kinobeads competition binding: MARK2. As to conditions: target MARK2. Further details: species or system human.
In experiment [19] the test system is PKMYT1. Kind of experiment: Kinobeads competition binding: PKMYT1. Further details: species or system human. Conditions: target PKMYT1.
For experiment [20], the target named is ADCK3 (Homo sapiens, UniProt Q8NI60). Kind of experiment: Kinobeads competition binding: ADCK3. Conditions: target ADCK3. Set-up: endogenous in cells.
Chain of ADCK3 (Q8NI60 163-647): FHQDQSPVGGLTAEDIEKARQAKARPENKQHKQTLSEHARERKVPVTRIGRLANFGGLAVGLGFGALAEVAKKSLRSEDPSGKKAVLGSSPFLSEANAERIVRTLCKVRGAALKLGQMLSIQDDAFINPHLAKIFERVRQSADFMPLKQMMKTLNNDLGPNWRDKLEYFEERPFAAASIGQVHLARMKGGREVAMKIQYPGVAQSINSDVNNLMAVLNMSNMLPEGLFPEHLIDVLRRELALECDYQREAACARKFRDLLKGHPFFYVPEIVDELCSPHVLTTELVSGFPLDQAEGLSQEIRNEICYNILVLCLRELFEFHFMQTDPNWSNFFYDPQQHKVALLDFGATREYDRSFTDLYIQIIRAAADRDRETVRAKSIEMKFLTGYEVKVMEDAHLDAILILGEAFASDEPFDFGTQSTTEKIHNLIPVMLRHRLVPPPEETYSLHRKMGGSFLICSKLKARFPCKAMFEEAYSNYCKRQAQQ
Experiment [21] addresses PKN3 (Homo sapiens, UniProt Q6P5Z2). Nature of the experiment: Kinobeads two-dose competition binding: PKN3. Further details: endogenous in cells. Conditions: for CATDSPKN3: selectivity score from Kinobeads two-dose data. The source says:
Briefly, Kinobeads comprise seven broad-spectrum small molecule kinase inhibitors immobilized on Sepharose beads. […]. Compounds of interest are set to compete for target protein binding with Kinobeads in the lysate and the amount of a given protein bound to Kinobeads in the presence of a compound can be quantified relative to a dimethylsulfoxide (DMSO) vehicle control by label-free mass spectrometry. This assay measures the physical interaction of a compound with thousands of endogenous proteins in parallel and, when systematically increasing the concentration of competitor, enables the calculation of an apparent interaction constant ( Kdapp ) for each compound and protein.
Kinobeads pulldown experiments were performed as described previously[13],[14],[17] with minor modification. […] The protein concentration was adjusted to 5 mg ml^−1. Kinase inhibitors were spiked into 0.5 ml of cell lysate at final concentrations of 100 and 1,000 nM (or DMSO, 0.3, 1, 3, 10, 30, 100, 300 and 1,000 nM for full dose experiments). […] Lysates were incubated for 45 min at 4 °C. Subsequently, lysates were incubated with Kinobeads ε (17.5 µl of settled beads) for 30 min at 4 °C. To assess the degree of protein depletion from the lysates by Kinobeads, the flow through of the DMSO control was recovered for a pulldown of pulldown experiment where the lysate was incubated a second time with fresh Kinobeads. Beads were washed in three steps with buffer containing 0.4%, 0.2% and no IGEPAL. Bound proteins were reduced with 50 mM DTT in 8 M Urea, 40 mM Tris-HCl pH 7.4 for 30 min at room temperature. After alkylation with 55 mM chloroacetamide, the urea concentration was reduced to 1–2 M and proteins were digested with trypsin. Acidified peptides were desalted and concentrated using SepPak tC18 µEluation plates (Waters). Samples were frozen, dried by vacuum centrifugation and stored at −20 °C.
Each kinase inhibitor was processed together with all DMSO controls of the same plate. Additionally, each search was supplemented with five high quality DMSO controls for consistent peptide identification and protein grouping. The resultant file (proteinGroups.txt) was used for subsequent filtering, normalization, data visualization and target annotation that was automatically performed by a data processing pipeline built in house that used R (including the ‘drc’ and ‘heatmap’ packages). First, reverse hits, potential contaminants and not quantified proteins in the DMSO control samples were discarded. Protein raw and label-free quantification intensities were normalized to the median DMSO control intensity to obtain relative residual binding intensities for each protein group at every inhibitor concentration and standard deviations of the DMSO control intensity were calculated. IC50 values were estimated based on the following equation IC50=I×100−inhibition/inhibition where [I] is the inhibitor concentration that was used for IC50 calculation and ‘inhibition’ the relative residual binding intensity. […]. Estimated Kdapp values were then calculated by multiplying the estimated IC50 values with a protein-dependent correction factor that was limited to a maximum value of one. The correction factor accounts for the depletion of a target protein from the lysate by Kinobeads. The depletion can be measured by the ratio of the amount of protein captured in two consecutive pulldowns of the same DMSO control lysate. In this study, correction factors were determined in separate experiments using the same lysate mixture and the same bead batch. Correction factors were set to the median of all correction factors. Targets of kinase inhibitors were annotated using the previously published random forest classifier. A training data set was annotated manually. […]

The mark [22] stands for this setting: Kinobeads two-dose, read-out: Kdapp PKN3.

Read-outs that look alike come from different tables or passages of the source.

T2 sequence (Q06187 whole entry): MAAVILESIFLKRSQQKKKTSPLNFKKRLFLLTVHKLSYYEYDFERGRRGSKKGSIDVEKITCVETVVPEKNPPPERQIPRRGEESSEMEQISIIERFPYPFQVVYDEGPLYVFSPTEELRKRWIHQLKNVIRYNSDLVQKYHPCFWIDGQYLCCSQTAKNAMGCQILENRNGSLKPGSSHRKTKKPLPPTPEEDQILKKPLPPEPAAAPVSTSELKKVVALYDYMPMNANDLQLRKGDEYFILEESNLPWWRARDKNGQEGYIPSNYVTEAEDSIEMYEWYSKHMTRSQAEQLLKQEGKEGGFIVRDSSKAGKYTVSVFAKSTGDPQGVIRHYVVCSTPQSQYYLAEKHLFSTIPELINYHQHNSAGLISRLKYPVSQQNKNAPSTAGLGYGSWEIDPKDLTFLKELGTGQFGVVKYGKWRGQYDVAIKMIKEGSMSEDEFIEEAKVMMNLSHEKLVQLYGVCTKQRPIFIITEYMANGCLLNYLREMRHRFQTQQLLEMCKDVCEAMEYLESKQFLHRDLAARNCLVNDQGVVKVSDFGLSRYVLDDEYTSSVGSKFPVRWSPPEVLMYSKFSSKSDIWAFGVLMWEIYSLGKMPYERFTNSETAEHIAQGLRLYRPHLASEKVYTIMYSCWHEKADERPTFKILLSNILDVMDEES
Chain of PKN3 (Q6P5Z2 whole entry): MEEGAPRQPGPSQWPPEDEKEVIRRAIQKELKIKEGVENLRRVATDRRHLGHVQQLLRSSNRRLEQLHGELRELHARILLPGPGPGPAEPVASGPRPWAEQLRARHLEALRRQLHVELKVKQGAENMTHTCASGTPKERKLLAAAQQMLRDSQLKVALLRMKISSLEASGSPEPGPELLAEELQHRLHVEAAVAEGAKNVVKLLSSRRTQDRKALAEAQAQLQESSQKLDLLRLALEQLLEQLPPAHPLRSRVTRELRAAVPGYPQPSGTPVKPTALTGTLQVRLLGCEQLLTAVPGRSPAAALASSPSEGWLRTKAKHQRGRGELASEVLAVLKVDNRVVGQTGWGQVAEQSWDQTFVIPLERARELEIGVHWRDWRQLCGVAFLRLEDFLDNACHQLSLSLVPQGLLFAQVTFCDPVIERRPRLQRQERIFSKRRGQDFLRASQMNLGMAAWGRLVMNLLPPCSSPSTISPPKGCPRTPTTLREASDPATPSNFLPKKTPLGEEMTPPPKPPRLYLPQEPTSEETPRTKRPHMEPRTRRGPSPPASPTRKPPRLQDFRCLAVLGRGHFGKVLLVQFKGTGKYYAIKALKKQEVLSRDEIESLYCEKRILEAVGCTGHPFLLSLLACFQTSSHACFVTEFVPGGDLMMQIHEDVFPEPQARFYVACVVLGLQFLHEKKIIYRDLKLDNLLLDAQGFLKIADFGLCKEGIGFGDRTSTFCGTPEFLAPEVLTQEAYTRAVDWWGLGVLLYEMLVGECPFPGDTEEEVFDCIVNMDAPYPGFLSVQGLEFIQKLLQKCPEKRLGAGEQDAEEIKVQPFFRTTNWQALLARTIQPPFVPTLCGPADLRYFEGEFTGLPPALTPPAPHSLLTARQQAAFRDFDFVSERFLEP
T1 sequence (Q9Y243 whole entry): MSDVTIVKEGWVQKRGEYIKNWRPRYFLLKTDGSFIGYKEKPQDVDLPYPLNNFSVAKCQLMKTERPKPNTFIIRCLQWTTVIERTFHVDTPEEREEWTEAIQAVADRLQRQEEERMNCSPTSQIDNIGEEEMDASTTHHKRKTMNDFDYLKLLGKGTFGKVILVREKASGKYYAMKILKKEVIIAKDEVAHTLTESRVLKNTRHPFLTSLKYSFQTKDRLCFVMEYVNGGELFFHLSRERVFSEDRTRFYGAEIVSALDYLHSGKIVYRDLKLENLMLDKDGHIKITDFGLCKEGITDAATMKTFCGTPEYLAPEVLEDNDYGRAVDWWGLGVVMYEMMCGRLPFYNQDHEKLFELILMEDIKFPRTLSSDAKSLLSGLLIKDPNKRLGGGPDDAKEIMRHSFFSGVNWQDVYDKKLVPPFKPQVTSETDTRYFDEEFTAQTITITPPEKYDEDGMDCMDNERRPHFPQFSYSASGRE
T6 sequence (P49840 whole entry): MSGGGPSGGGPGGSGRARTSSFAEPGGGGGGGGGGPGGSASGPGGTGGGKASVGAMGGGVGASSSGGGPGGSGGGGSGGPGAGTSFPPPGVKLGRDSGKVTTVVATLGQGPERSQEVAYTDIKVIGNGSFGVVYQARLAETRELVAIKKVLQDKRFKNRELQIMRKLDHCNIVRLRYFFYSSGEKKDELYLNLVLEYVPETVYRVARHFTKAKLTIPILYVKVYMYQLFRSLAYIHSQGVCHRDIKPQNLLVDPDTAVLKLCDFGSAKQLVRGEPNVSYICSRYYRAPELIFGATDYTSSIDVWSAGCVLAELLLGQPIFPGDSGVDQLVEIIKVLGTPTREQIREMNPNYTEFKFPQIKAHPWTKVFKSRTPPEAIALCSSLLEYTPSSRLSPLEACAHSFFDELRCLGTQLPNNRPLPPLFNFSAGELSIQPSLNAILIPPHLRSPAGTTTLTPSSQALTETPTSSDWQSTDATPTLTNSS

Take `Nc1ncnc2[nH]c(-c3ccccc3)nc12` [AH5015_KCGS]: the CATDS in experiment [1], in experiment [2], in experiment [3], in [4], in experiment [5] and in experiment [6] was 0 each time. The CATDS amounted to 0 in experiment [7]; 0 in experiment [8]; 0 in experiment [9]; 0 in [10]; 0.1015 in [11]; 0 in experiment [12]. In addition, the CATDS in experiment [13], in experiment [14], in experiment [15], in experiment [16], in experiment [17] and in experiment [18] was 0 throughout. The CATDS in experiment [19] and in [20] was 0 each time.

With `CCn1c(-c2nonc2N)nc2c(C#CC(C)(C)O)nc(OCCNC)cc21` [GSK949675A], in experiment [21] (setting [22]), the potency estimated from few doses is 2.5 nM. This compound showed a CATDSPKN3 in experiment [21] of 0.86.

`C[C@]12O[C@H](C[C@]1(O)CO)n1c3ccccc3c3c4c(c5c6ccccc6n2c5c31)CNC4=O` [Lestaurtinib]: the potency estimated from few doses in [21] (read-out: Lestaurtinib Drugmatrix value, Gene Name PKN3, one column per experiment number and replicate (R1-R3)) was 755 nM.

Turning to `NCc1ccc(-c2nc(-c3ccncc3)c(-c3ccc(Cl)c(O)c3)[nH]2)cc1` [SB-476429-A], the potency estimated from few doses in [21] (read-out: Kdapp PKN3) was 36 nM. The compound also displayed a CATDSPKN3 in experiment [21] of 0.21.

For the compound `CCc1cc2c(cc1N1CCC(N3CCOCC3)CC1)C(C)(C)c1[nH]c3cc(C#N)ccc3c1C2=O` [Alectinib], the CATDS in experiment [1], in [2], in experiment [3], in [4], in experiment [5] and in experiment [6] was 0 in each case. Moreover, the CATDS in experiment [7], in [8], in [9], in experiment [10], in [11] and in experiment [12] was 0 each time. The CATDS in experiment [13], in experiment [14], in [15], in experiment [16], in [17] and in experiment [18] was 0 in each case. For the same compound, the CATDS in experiment [19] and in experiment [20] was 0 throughout.

On to `N#CC1(c2ccc(NC(=O)c3cccnc3NCc3ccncc3)cc2)CCCC1` [Apatinib], for which the CATDS in experiment [1], in experiment [2], in [3], in experiment [4], in experiment [5] and in experiment [6] was 0 throughout. Moreover, the CATDS in [7], in experiment [8], in [9], in experiment [10], in experiment [11] and in experiment [12] was 0 throughout. The CATDS in experiment [13], in [14], in experiment [15], in experiment [16], in experiment [17] and in experiment [18] was 0 each time. For the same compound, the CATDS in [19] and in [20] was 0 throughout.

Regarding `CCn1c(-c2nonc2N)nc2c(C#CC(C)(C)O)nc(OCCN)cc21` [GSK902056A], the potency estimated from few doses in experiment [21] (setting [22]) was 1 nM. For the same compound, the CATDSPKN3 in experiment [21] is on record as 0.93.

For the compound `CCN1CCN(Cc2ccc(Nc3ncc(F)c(-c4cc(F)c5nc(C)n(C(C)C)c5c4)n3)nc2)CC1` [Abemaciclib], the CATDS came to 0 in experiment [1]; 0 in [2]; 0 in experiment [3]; 0.1515 in [4]; 0.02553 in [5]; 0 in [8]. Further, the CATDS in experiment [9] worked out at 0; in experiment [10], 0; in experiment [11] it was 0.08929; in [12] it was 0; in experiment [13] it was 0; in experiment [14], 0. For the same compound, the CATDS in [15], in experiment [16], in experiment [17], in experiment [18], in experiment [19] and in experiment [20] was 0 each time.

Take `CN(C)C/C=C/C(=O)Nc1cc2c(Nc3ccc(F)c(Cl)c3)ncnc2cc1O[C@H]1CCOC1` [Afatinib]: the CATDS in [3], in [4], in experiment [6], in [9] and in experiment [11] was 0 each time.

As to `COc1cc(Nc2ncc3c(C)nc(-c4cc5ccccc5[nH]4)n3n2)cc(OC)c1OC` [GW869516X], in [1] (FLT3), the “Kinobeads Data” value is listed as “no target”.

These data come from PMC11062922 (Nature Chemical Biology, 2023).
